Key:
progesterone receptor = molecular target: T1, progesterone receptor (Homo sapiens, UniProt P06401); assay: Progesterone Antagonist Screen (SelectScreen cell-based nuclear receptor profiling, GeneBLAzer beta-lactamase reporter); details: relative to RU486, which is 100%; progesterone receptor-LBD-UAS-bla HEK 293T cells; activated by control agonist R5020 at EC80
T1 construct: host or cells: HEK 293T
T1 sequence (P06401 679-913 limits assumed): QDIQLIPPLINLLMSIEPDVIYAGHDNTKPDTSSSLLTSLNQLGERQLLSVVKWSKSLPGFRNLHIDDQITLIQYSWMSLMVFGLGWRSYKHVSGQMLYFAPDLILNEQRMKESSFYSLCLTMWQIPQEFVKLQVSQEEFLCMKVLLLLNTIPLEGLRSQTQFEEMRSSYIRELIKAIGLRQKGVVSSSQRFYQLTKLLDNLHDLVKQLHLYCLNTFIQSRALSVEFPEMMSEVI
Description: (§1) Determination of the agonist/antagonist nature of the test compounds was carried out using Invitrogen's SelectScreen™ Cell-based nuclear receptor profiling service which uses the GeneBLAzer® Beta-lactamase reporter technology. Basically this assay uses a Beta-lactamase cDNA under transcriptional control of an Upstream Activator Sequence (UAS). The UAS is activated by the GAL4 transcription factor DNA binding domain (DBD), which is expressed as a fusion protein with the target receptor ligand binding domain (LBD). Upon ligand binding, the GAL4(DBD)-NR(LDB) binds to the UAS, which controls transcription of Beta-lactamase. Beta-lactamase cleaves a special engineered fluorescent substrate which results in a change in the measured fluorescence wavelength.
The generalized protocol used for the Progesterone Antagonist Screen, activated by control Agonist R5020 is as follows:
(§2) The progesterone receptor-LBD-UAS-bla HEK 293T cells are thawed and prepared as described above for the Agonist screen. 4 μL of a 10× serial dilution of control antagonist RU486 (starting concentration, 100 nM) or test compounds are added to appropriate wells of a TC-Treated assay plate. 32 μL of cell suspension is added to the wells which is then pre-incubated at 37° C./5% CO2 in a humidified incubator with test compounds and control antagonist titration for 30 min. 4 μL of a 10× control agonist (see above) at the predetermined EC80 concentration is added to wells containing the control antagonist or test compounds. The plate is incubated for 16-24 h at 37° C./5% CO2 in a humidified incubator. 8 μL of 1 μM Substrate Loading Solution is added to each well and the plate is incubated for 2 h at room temperature. The plate is then read on a fluorescence plate reader (Tecan Safire).

glucocorticoid receptor = molecular target: T2, glucocorticoid receptor (Homo sapiens, UniProt P04150); assay: Glucocorticoid Antagonist Screen (SelectScreen cell-based nuclear receptor profiling, GeneBLAzer beta-lactamase reporter); details: relative to RU486, which is 100%; glucocorticoid receptor-LBD-UAS-bla HEK 293T cells; activated by control agonist Dexamethasone
T2 construct: host or cells: HEK 293T
T2 sequence (P04150 524-758 limits assumed): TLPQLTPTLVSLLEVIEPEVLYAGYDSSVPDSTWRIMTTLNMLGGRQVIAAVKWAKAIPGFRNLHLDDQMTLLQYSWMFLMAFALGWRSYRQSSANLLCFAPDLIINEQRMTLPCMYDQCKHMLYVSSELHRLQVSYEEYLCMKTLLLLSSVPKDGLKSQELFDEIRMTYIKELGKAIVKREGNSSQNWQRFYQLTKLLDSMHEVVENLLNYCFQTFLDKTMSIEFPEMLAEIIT
Description: as §1, §2
The generalized protocol for the Glucocorticoid Antagonist Screen activated by control Agonist Dexamethasone was carried out as described for the Progesterone Antagonist Screen with the exception that glucocorticoid receptor-LBD-UAS-bla HEK 293T cells were used. The control antagonist used for the glucocorticoid assay was also RU486.

Row | Progesterone Antagonist (%) (progesterone receptor) | Glucocorticoid Antagonist (%) (glucocorticoid receptor) | SMILES
1 | 54% | 31% | C[C@]12C[C@H](c3ccc(-n4ccnc4)cc3)C3=C4CCC(=O)C=C4CCC3C1CC[C@@]2(O)/C=C/C(F)(F)F (stereo partly drawn) [Ic, 11β-(4′-(1-imidazolyl)phenyl)-17β-hydroxy-17-(3,3,3-trifluoroprop-1(E)-enyl)-estra-4,9-diene-3-one]
2 | 81% | 6% | CC(=O)c1ccc([C@H]2C[C@@]3(C)[C@@H](CC[C@@]3(O)C(F)(F)C(F)(F)F)[C@@H]3CCC4=CC(=O)CCC4=C32)cc1 [ZK 230211, reference compound]

Further lines, the compound ahead of its results:

Row | SMILES | Progesterone Antagonist (%) (progesterone receptor) | Glucocorticoid Antagonist (%) (glucocorticoid receptor)
3 | C[C@]12C[C@H](c3ccc(-n4ccnc4)cc3)C3=C4CCC(=O)C=C4CC[C@H]3[C@@H]1CC[C@@]2(O)C(F)(F)C(F)(F)F [Ia, 11β-(4′-(1-imidazolyl)phenyl)-17β-hydroxy-17-(1,1,2,2,2-pentafluoroethyl)-estra-4,9-diene-3-one] | 267% | 9%
4 | C[C@]12C[C@H](c3ccc(-n4ccnc4)cc3)C3=C4CCC(=O)C=C4CC[C@H]3[C@@H]1CC[C@@]2(O)C#CC(F)(F)F [Ib, 11β-(4′-(1-imidazolyl)phenyl)-17β-hydroxy-17-(3,3,3-trifluoro-1-propynyl)-estra-4,9-diene-3-one] | 34% | 83%
5 | C=CC(F)(F)[C@]1(O)CC[C@H]2[C@@H]3CCC4=CC(=O)CCC4=C3[C@@H](c3ccc(-n4ccnc4)cc3)C[C@@]21C [Id, 11β-(4′-(1-imidazolyl)phenyl)-17β-hydroxy-17-(1,1-difluoroprop-2-enyl)-estra-4,9-diene-3-one] | 90% | 13%
6 | C=C1CCOC12CCC1C3CCC4=CC(=O)CCC4=C3[C@@H](c3ccc(-n4ccnc4)cc3)C[C@@]12C (stereo partly drawn) [Ie, 11β-(4′-[1-imidazolyl]phenyl)-17,23-epoxy-19,24-dinor-17α-chola-4,9,20-triene-3-one] | 163% | 5%
